Patent publication US4317917A, “Derivatives of methyl-substituted or methoxy-substituted 2-hydroxybenzoic acids, and pharmaceutical formulations containing them” (priority 1979, dated 1982)
In brackets after ≈: the same amount, converted by molar mass.

Key:
stomachs = test: Ulcerogenic action in the female Wistar rat; assay type: in vivo; settings: four hours after treatment
Protocol: The ulcerogenic action of the product was evaluated in the female Wistar rat in comparison with that of other known antiinflammatory drugs.
The products were administered orally in a dose corresponding to about two fifths their LD50.
The animals were sacrificed four hours after treatment, and the stomachs examined to check any presence of ulcers.

[1] = Acute toxicity (LD50) in the Swiss mouse; settings: in vivo, 95% reliability limits in brackets, seventh day
Protocol: (§1) Acute toxicity of the product was studied in the Swiss mouse and Wistar rat by oral and intraperitoneal administration. The substance was carried in 5% gum arabic for both methods of administration. The volumes inoculated for both methods of administration were 20 ml/kg of body weight for the mouse and 5 ml/kg for the rat. The LD50 values expressed in mg/kg were calculated on the seventh day of treatment by the probital analysis method.

[2] = Acute toxicity (LD50) in the Wistar rat; settings: in vivo, seventh day
Protocol: as §1

rat = test: Subacute toxicity in the rat by intramuscular administration; assay type: in vivo; settings: 60 and 120 mg/kg/die, 25 consecutive days
Protocol: 2. Subacute toxicity in the rat by intramuscular administration
The test was carried out for 25 consecutive days using drug doses of 60 and 120 mg/kg/die.

[3] = test system: conjunctival sac of the eye of a rabbit; test: Local tolerability check, conjunctival sac of the rabbit eye; assay type: in vivo; settings: 0.5 solution dropped into conjunctival sac
[4] = test system: tissues where the drug was introduced; test: Local tolerability check, intramuscular administration in the rat; assay type: in vivo; settings: 60-120 mg/kg/die, 25 consecutive days
[5] = test system: edema induced in the rear paw of the rat by carrageen; test: Antiinflammatory activity, edema by carrageen in the rear paw of the rat (method of Winter); assay type: in vivo, Wistar rat
Protocol: The antiinflammatory activity of AF1 was evaluated in comparison with that of a known drug (Tanderil®) by inhibiting the edema induced in the rear paw of the rat by carrageen. The method used is that described by Winter.
The substances examined were administered orally to Wistar rats having a body weight of 165±15 g.
The percentage edema inhibition for the various groups of animals was calculated by putting the average percentage increase of the control group equal to 100.

edema induced by kaolin = test: Antiinflammatory activity, edema by kaolin, diameter of the tibiotarsal joint; assay type: in vivo, rat
Protocol: The antiedematous action of AF1 was also investigated by the test of Conbon and coll. (Arch.Int.Pharmacodyn. 99; 474, 1954), consisting of measuring the diameter of the tibiotarsal joint in both the rear paws of the rat. Groups of five animals representing controls and treated animals were used for two separate experiments. 0.2 ml of a sterile 10% kaolin suspension was injected directly into the joint of the two rear paws of each animal.
The joint diameter was measured one hour after the kaolin injection and then every 24 hours afterwards for five consecutive days. The AF1 compound was administered intraperitoneally in a quantity of 100 mg/kg one hour after the kaolin injection and at the same time on the following days over the entire test period.

painful reaction = test: Analgesic activity in the mouse (method of Ben Bassat and coll.); assay type: in vivo; settings: 100 mg/kg oral
Protocol: The analgesic activity of the compound under examination was tested in the mouse by the method of Ben Bassat and coll. (Arch. Int. Pharmacodyn, 122, 434, 1954) and comparing the drug in question with Tanderil® (T).

[6] = test system: gastric or duodenal lesion; test: Gastric or duodenal lesions in mice treated for 5 consecutive days; assay type: in vivo; settings: 200 mg/kg per day
Haemophilus influeniae = test: In vitro antibacterial activity, minimum inhibiting concentration (C.M.I.), Haemophilus influeniae; assay type: cell-based; settings: Gram (-), Difco nutrient broth
Protocol: (§2) The antiseptic power of the substance under examination was evaluated by determining the minimum inhibiting concentration (C.M.I.) on a series of Gram negative and Gram positive germs related to the pathology of the respiratory tree.
(§3) The culture broth used was Difco nutrient broth, and 8 test samples were used for each concentration tested. Guaiacol was used as the comparison drug.

Sarcina lutea = test: In vitro antibacterial activity, minimum inhibiting concentration (C.M.I.), Sarcina lutea; assay type: cell-based; settings: Micrococcus luteus, Gram (+), Difco nutrient broth
Protocol: as §2, §3

Micrococcus catarrhalis = test: In vitro antibacterial activity, minimum inhibiting concentration (C.M.I.), Micrococcus catarrhalis; assay type: cell-based; settings: Gram (-), Difco nutrient broth
Protocol: as §2, §3

Micrococcus pyogenes = test: In vitro antibacterial activity, minimum inhibiting concentration (C.M.I.), Micrococcus pyogenes; assay type: cell-based; settings: Staphylococcus aureus, Gram (+), Difco nutrient broth
Protocol: as §2, §3

[7] = test system: Micrococcus tuberc. (bovis); test: In vitro antibacterial activity, minimum inhibiting concentration (C.M.I.), Micrococcus tuberc. (bovis); assay type: cell-based; settings: read-out: Minimum inhibiting concentration
Protocol: as §2, §3

[8] = day 1 after kaolin, 100 mg/kg/day intraperitoneally
[9] = day 2 after kaolin, 100 mg/kg/day intraperitoneally
[10] = day 3 after kaolin, 100 mg/kg/day intraperitoneally
[11] = day 4 after kaolin, 100 mg/kg/day intraperitoneally
[12] = day 5 after kaolin, 100 mg/kg/day intraperitoneally

COc1ccc2cc([C@H](C)C(=O)O)ccc2c1 [Naproxen, reference compound]
No. of ulcerated animals/No. of treated animals (stomachs; 200 mg/kg oral): 5/10

Cc1ccc(OC(=O)C=Cc2ccccc2)c(C(=O)O)c1 [AF1, 2-(3-phenyl-2-propenoyloxy)-5-methylbenzoic acid]
LD50 at 168 h ([1]; ip): 410 mg/kg | LD50 at 168 h ([1]; oral): 902 mg/kg | LD50 at 168 h ([2]; ip, 95% reliability limits in brackets): 734 mg/kg | LD50 at 168 h ([2]; oral): > 2000 mg/kg | condition of the rats (rat): always excellent | significant changes in general condition and weight (rat): neither were there significant changes in general condition and weight | irritating or damaging modification to local tissues [3]: no irritating or otherwise damaging modification to local tissues | macroscopic change in the tissues where the drug was introduced [4]: no macroscopic change in the tissues where the drug was introduced | other undesirable local phenomena [4]: neither were other undesirable local phenomena observed | Percentage edema inhibition relative to the controls ([5]; 25 mg/kg oral, 4 hours): 42% | Percentage edema inhibition relative to the controls ([5]; 25 mg/kg oral, 6 hours): 71% | Percentage edema inhibition relative to the controls ([5]; 50 mg/kg oral, 4 hours): 62% | Percentage edema inhibition relative to the controls ([5]; 50 mg/kg oral, 6 hours): 84% | Percentage edema inhibition relative to the controls ([5]; 75 mg/kg oral, 4 hours): 73% | Percentage edema inhibition relative to the controls ([5]; 75 mg/kg oral, 6 hours): 87% | Average of diameters, treated animals (edema induced by kaolin; 0 + 1 hour after kaolin (time of first AF1 dose)): 6.9 mm | Average of diameters, treated animals (edema induced by kaolin; day 0 (baseline, before AF1)): 5.8 mm | % change in tibiotarsal joint diameter relative to controls (edema induced by kaolin; [8]): -11.1% | Average of diameters, treated animals (edema induced by kaolin; [8]): 8.8 mm | % change in tibiotarsal joint diameter relative to controls (edema induced by kaolin; [9]): -14.7% | Average of diameters, treated animals (edema induced by kaolin; [9]): 8.7 mm | % change in tibiotarsal joint diameter relative to controls (edema induced by kaolin; [10]): -26.6% | Average of diameters, treated animals (edema induced by kaolin; [10]): 8.0 mm | % change in tibiotarsal joint diameter relative to controls (edema induced by kaolin; [11]): -23.3% | Average of diameters, treated animals (edema induced by kaolin; [11]): 7.9 mm | % change in tibiotarsal joint diameter relative to controls (edema induced by kaolin; [12]): -25.7% | Average of diameters, treated animals (edema induced by kaolin; [12]): 7.5 mm | % Increase in the painful reaction time relative to the controls (painful reaction; 30 min.): 22% | % Increase in the painful reaction time relative to the controls (painful reaction; 60 min.): 32% | % Increase in the painful reaction time relative to the controls (painful reaction; 90 min.): 36% | % Increase in the painful reaction time relative to the controls (painful reaction; 120 min.): 48% | % Increase in the painful reaction time relative to the controls (painful reaction; 150 min.): 51% | No. of ulcerated animals/No. of treated animals (stomachs; 400 mg/kg oral): 0/10 | No. of ulcerated animals/No. of treated animals (stomachs; 800 mg/kg oral): 1/10 | gastric or duodenal lesion [6]: no sign of any gastric or duodenal lesion | MIC (Haemophilus influeniae): 16 mg/mL (≈ 56.7 mM) | MIC (Sarcina lutea): 9.15 mg/mL (≈ 32.4 mM) | MIC (Micrococcus catarrhalis): 4.3 mg/mL (≈ 15.2 mM) | MIC (Micrococcus pyogenes): 16.6 mg/mL (≈ 58.8 mM) | MIC [7]: 3.15 mg/mL (≈ 11.2 mM)

CCCCC1C(=O)N(c2ccccc2)N(c2ccc(O)cc2)C1=O (stereo not shown) [Tanderil, reference compound]
Percentage edema inhibition relative to the controls ([5]; 25 mg/kg oral, 4 hours): 58% | Percentage edema inhibition relative to the controls ([5]; 25 mg/kg oral, 6 hours): 68% | Percentage edema inhibition relative to the controls ([5]; 50 mg/kg oral, 4 hours): 56% | Percentage edema inhibition relative to the controls ([5]; 50 mg/kg oral, 6 hours): 78% | % Increase in the painful reaction time relative to the controls (painful reaction; 30 min.): 11% | % Increase in the painful reaction time relative to the controls (painful reaction; 60 min.): 14% | % Increase in the painful reaction time relative to the controls (painful reaction; 90 min.): 15% | % Increase in the painful reaction time relative to the controls (painful reaction; 120 min.): 20% | % Increase in the painful reaction time relative to the controls (painful reaction; 150 min.): 21%

COc1ccccc1O [Guaiacol, reference compound]
MIC (Haemophilus influeniae): 33 mg/mL (≈ 266 mM) | MIC (Sarcina lutea): 33 mg/mL (≈ 266 mM) | MIC (Micrococcus catarrhalis): 16.6 mg/mL (≈ 134 mM) | MIC (Micrococcus pyogenes): 33 mg/mL (≈ 266 mM) | MIC [7]: 33 mg/mL (≈ 266 mM)
